Laboratory results reported in PMC4914680 (Antimicrobial Agents and Chemotherapy, 2016).
pEC50: −log10 of the molar value. “Also recorded” adds a separate entry of the source. Where two headings read alike, the source gives them in different places.

Columns and labels:
[1] = test system: INI (140S, 148H) resistant virus (NLRepRluc-G140S/Q148H); format: cell-based, HIV-1
[2] = test system: NRTI (41L, 67N, 215F, 219E, 69N), AZT-resistant virus 7324-1; format: cell-based, HIV-1
[3] = test system: HIV-1 NL4-3 ΔV370 variant (NLRepRlucP373S/Δ370); format: cell-based
[4] = test system: NRTI (184V) resistant virus (LAI M184V); format: cell-based, HIV-1
[5] = test system: NNRTI (103N, 181C) resistant virus; format: cell-based, HIV-1
[6] = test system: PI (54V, 82A, 84V 84V) resistant virus; format: cell-based, HIV-1
[7] = test system: V370M virus (recombinant virus with gag/pr genes from a clinical isolate); assay: microbe, parasite or virus in culture; format: cell-based, HIV-1; settings: Human immunodeficiency virus 1, MT2, read-out: EC50 (SD)
[8] = test system: subtype B gag/pr recombinant viruses; assay: Multiple-cycle Gag/Pr phenotyping assay; format: cell-based, HIV-1
HIV-1 NL4-3 = assay: Time-of-addition study, NL4-3-infected B6 cells; format: cell-based; settings: single cycle; for effect on luciferase signal by time of addition: 24 h postinfection; for time postinfection at which effectiveness begins to be lost: >100-fold EC50
[9] = test system: HIV-LAI envelope-pseudotyped RepRlucP373SΔenv virus; assay: Two-stage single-cycle pseudotype assay (HIV-1 entry assay); format: cell-based
HIV-1 gp160 = target: T1, HIV-1 gp160 (Human immunodeficiency virus type 1 group M subtype B, UniProt P04578); assay: HIV-1 cell fusion assay; format: cell-based
T1 construct: expressed in transfected cells; host or cells: NL-TOE donor cells (target cells: HeLa C14)

HIV-1 Gag (WT LAI VLPs) = HIV-1 Gag (WT LAI VLPs) (Human immunodeficiency virus type 1 group M subtype B, UniProt P03348); assay: [3H]BMS-955176-Gag binding (SPA); settings: raltegravir at 10 μM; data not shown
[10] = target: WT HIV-1 VLPs, p25 to p24 (CA/SP1) cleavage (Human immunodeficiency virus type 1 group M subtype B, UniProt P03348); assay: HIV-1 VLP protease cleavage assay; format: biochemical; settings: Western blot
[11] = test system: PI (46I, 82F, 84V, 90 M) resistant virus; format: cell-based, HIV-1
[12] = Human immunodeficiency virus 1, NL43, MT2
[13] = Human immunodeficiency virus 1, NL43, MT2, read-out: EC50 (SD)
[14] = Human immunodeficiency virus 1, read-out: EC50 (mean), sublibrary, None (WT), n=21
[15] = Human immunodeficiency virus 1, read-out: EC50 (mean), sublibrary, T371A/Q/N/S/TT, n=4
[16] = Human immunodeficiency virus 1, read-out: EC50 (mean), sublibrary, V362I, n=3
[17] = Human immunodeficiency virus 1, read-out: EC50 (mean), sublibrary, V370A + ΔT371, n=3
[18] = Human immunodeficiency virus 1, read-out: EC50 (mean), sublibrary, V370A, n=3
[19] = Human immunodeficiency virus 1, read-out: EC50 (mean), sublibrary, V370I/L/T, n=3
[20] = Human immunodeficiency virus 1, read-out: EC50 (mean), sublibrary, V370 M, n=5

## COC(=O)N[C@H](C(=O)N[C@@H](Cc1ccccc1)[C@@H](O)CN(Cc1ccc(-c2ccccn2)cc1)NC(=O)[C@@H](NC(=O)OC)C(C)(C)C)C(C)(C)C [Atazanavir]
[1]
  Fold change in EC50 (SD) relative to parental strain: 1.0 (0.21)
[2]
  Fold change in EC50 (SD) relative to parental strain: 2.27 (0.02)
[3]; [12]
  pEC50: 8.42
[4]
  Fold change in EC50 (SD) relative to parental strain: 1.1 (0.1)
[5]
  Fold change in EC50 (SD) relative to parental strain: 0.93 (0.03)
[6]
  Fold change in EC50 (SD) relative to parental strain: 39
[7]
  pEC50: 8.64

## C=C(C)[C@@H]1CC[C@]2(C(=O)O)CC[C@]3(C)[C@H](CC[C@@H]4[C@@]5(C)CC=C(c6ccc(C(=O)O)cc6)C(C)(C)[C@@H]5CC[C@]43C)[C@@H]12 [BMS-1]
[3]; [13]
  pEC50: < 5.22

## C=C(C)[C@@H]1CC[C@]2(C(=O)NCCc3ccccn3)CC[C@]3(C)[C@H](CC[C@@H]4[C@@]5(C)CC=C(c6ccc(C(=O)O)cc6)C(C)(C)[C@@H]5CC[C@]43C)[C@@H]12 [BMS-2]
[3]; [13]
  pEC50: 6.38
[8]; [14]
  pEC50: 7.85
[8]; [15]
  pEC50: 7.31
[8]; [16]
  pEC50: 7.54
[8]; [17]
  pEC50: 6.20
[8]; [18]
  pEC50: 7.42
[8]; [19]
  pEC50: 7.59
[8]; [20]
  pEC50: 7.12

## C=C(C)[C@@H]1CC[C@]2(C(=O)NCCN(C)C)CC[C@]3(C)[C@H](CC[C@@H]4[C@@]5(C)CC=C(c6ccc(C(=O)O)cc6)C(C)(C)[C@@H]5CC[C@]43C)[C@@H]12 [BMS-3]
[3]; [13]
  pEC50: 7.51

## COc1ccnc2[nH]cc(C(=O)C(=O)N3CCN(C(=O)c4ccccc4)C[C@H]3C)c12 [BMS-378806]
HIV-1 NL4-3
  effect on luciferase signal by time of addition: fully inhibitory (0% of control) only when added at the time of infection
  time postinfection at which effectiveness begins to be lost: ≤ 4 h
[9]
  inhibition of luciferase, compound added at stage 1 (virus production): inhibitory when added at either stage 1 or 2
  inhibition of luciferase, compound added at stage 2 (infection): inhibitory when added at either stage 1 or 2
HIV-1 gp160; cell-cell fusion, luciferase, read-out: EC50
  pEC50: 9.05

## C=C(C)[C@@H]1CC[C@]2(C(=O)O)CC[C@]3(C)[C@H](CC[C@@H]4[C@@]5(C)CC[C@H](OC(=O)CC(C)(C)C(=O)O)C(C)(C)[C@@H]5CC[C@]43C)[C@@H]12 [BVM, 3-O-(3′,3′-dimethylsuccinyl)betulinic acid, reference compound]
HIV-1 NL4-3
  effect on luciferase signal by time of addition: had no effect when added at any time point
[9]
  inhibition of luciferase, compound added at stage 1 (virus production): inhibiting luciferase production only when added in the first stage; also recorded: does not attain complete inhibition relative to NFV
  inhibition of luciferase, compound added at stage 2 (infection): inhibiting luciferase production only when added in the first stage
HIV-1 Gag (WT LAI VLPs)
  competition for the binding of [3H]BMS-955176: A similar result was obtained by displacement
[3]; [12]
  pEC50: ≤ 5.00
[3]; [13]
  pEC50: < 5.00
[8]; [14]
  pEC50: 7.85
[8]; [15]
  pEC50: 6.95
[8]; [16]
  pEC50: 7.44
[8]; [17]
  pEC50: < 5.40
[8]; [18]
  pEC50: 6.64
[8]; [19]
  pEC50: 6.60
[8]; [20]
  pEC50: 6.04
[10]
  inhibition of conversion of VLP p25 to p24: inhibited the conversion of HIV-1 WT VLP p25 to p24 in a dose-dependent manner

## CC(C)CN(C[C@@H](O)[C@H](Cc1ccccc1)NC(=O)O[C@H]1CO[C@H]2OCC[C@H]21)S(=O)(=O)c1ccc(N)cc1 [Darunavir]
[1]
  Fold change in EC50 (SD) relative to parental strain: 1.1 (0.1)
[3]; [12]
  pEC50: 8.35
[4]
  Fold change in EC50 (SD) relative to parental strain: 1.2 (0.4)
[5]
  Fold change in EC50 (SD) relative to parental strain: 0.90 (0.1)
[6]
  Fold change in EC50 (SD) relative to parental strain: 2.3
[11]
  Fold change in EC50 (SD) relative to parental strain: 41 (1.9)
[7]
  pEC50: 8.64

## O=C1Nc2ccc(Cl)cc2[C@@](C#CC2CC2)(C(F)(F)F)O1 [Efavirenz]
HIV-1 NL4-3
  time postinfection at which effectiveness begins to be lost: 6 h
[1]
  Fold change in EC50 (SD) relative to parental strain: 0.60 (0.3)
[4]
  Fold change in EC50 (SD) relative to parental strain: 1.0 (0.1)
[5]
  Fold change in EC50 (SD) relative to parental strain: 55 (2.2)
[6]
  Fold change in EC50 (SD) relative to parental strain: 1.4
[11]
  Fold change in EC50 (SD) relative to parental strain: 0.20 (0.01)

## Nc1ccn([C@@H]2CS[C@H](CO)O2)c(=O)n1 [Lamivudine]
[3]; [12]
  pEC50: 6.33

## Cc1c(O)cccc1C(=O)N[C@@H](CSc1ccccc1)[C@H](O)CN1C[C@H]2CCCC[C@H]2C[C@H]1C(=O)NC(C)(C)C [NFV]
HIV-1 NL4-3
  effect on luciferase signal by time of addition: had no effect when added at any time point
[9]
  inhibition of luciferase, compound added at stage 1 (virus production): luciferase activity was inhibited
  inhibition of luciferase, compound added at stage 2 (infection): luciferase production was not inhibited
[3]; [12]
  pEC50: 8.30
HIV-1 gp160
  pEC50: < 5.70

## Cc1ccnc2c1NC(=O)c1cccnc1N2C1CC1 [Nevirapine]
[1]
  Fold change in EC50 (SD) relative to parental strain: 0.89 (0.59)
[2]
  Fold change in EC50 (SD) relative to parental strain: 1.6 (0.2)
[3]; [12]
  pEC50: 6.77
[4]
  Fold change in EC50 (SD) relative to parental strain: 1.3 (0.2)
[5]
  Fold change in EC50 (SD) relative to parental strain: >131 (108)
[11]
  Fold change in EC50 (SD) relative to parental strain: 0.83 (0.08)
[7]
  pEC50: 6.03

## Cc1nnc(C(=O)NC(C)(C)c2nc(C(=O)NCc3ccc(F)cc3)c(O)c(=O)n2C)o1 [Raltegravir]
HIV-1 NL4-3
  time postinfection at which effectiveness begins to be lost: 8 h
HIV-1 Gag (WT LAI VLPs)
  competition for the binding of [3H]BMS-955176: did not compete
[1]
  Fold change in EC50 (SD) relative to parental strain: >340 (72)
[3]; [12]
  pEC50: 8.47
[4]
  Fold change in EC50 (SD) relative to parental strain: 1.9 (0.6)
[5]
  Fold change in EC50 (SD) relative to parental strain: 1.8 (0.4)
[11]
  Fold change in EC50 (SD) relative to parental strain: 0.18 (0.07)
[7]
  pEC50: 8.48

## Cc1cc(/C=C/C#N)cc(C)c1Nc1ccnc(Nc2ccc(C#N)cc2)n1 [Rilpivirine]
[1]
  Fold change in EC50 (SD) relative to parental strain: 1.0 (0.5)
[4]
  Fold change in EC50 (SD) relative to parental strain: 2.0 (0.3)
[5]
  Fold change in EC50 (SD) relative to parental strain: 8.1 (1.5)
[11]
  Fold change in EC50 (SD) relative to parental strain: 2.6 (0.8)

## C[C@H](Cn1cnc2c(N)ncnc21)OCP(=O)(O)O [Tenofovir]
[3]; [12]
  pEC50: 8.14
[7]
  pEC50: 8.30

## Cc1cn([C@H]2C[C@H](N=[N+]=[N-])[C@@H](CO)O2)c(=O)[nH]c1=O [Zidovudine]
[1]
  Fold change in EC50 (SD) relative to parental strain: 0.82 (0.41)
[2]
  Fold change in EC50 (SD) relative to parental strain: 79 (5)
[4]
  Fold change in EC50 (SD) relative to parental strain: 0.78 (0.03)
[5]
  Fold change in EC50 (SD) relative to parental strain: 1.03 (0.17)
